Results from patent US10508088B2, “Methods using HDAC11 inhibitors” (FORMA Therapeutics, Inc., priority 2016, dated 2019).

Tests used:
[1] = target: HDAC11 (Homo sapiens (Human), UniProt Q96DB2); experiment: HDAC inhibition assay, electrophoretic mobility shift (Nanosyn); format: biochemical; conditions: for selectivity over HDACs 1-10: HDAC11 versus HDACs 1-10; for IC50: read-out: HDAC Biochemical IC50 HDAC11
Protocol: This example describes in vitro inhibition properties of exemplary HDAC11 inhibitors for various HDACs. HDAC inhibition assays were performed using an electrophoretic mobility shift assay at Nanosyn, Inc. (Santa Clara, Calif.). Full length human recombinant HDAC proteins were expressed in the baculoviral system and purified by affinity chromatography. A human recombinant HDAC3 was co-expressed with nuclear receptor corepressor (Ncor2). The following peptide substrates were used: FAM-RHKK(Ac)-NH2 for HDAC3, HDAC6 and HDAC8; FITC-H3K27(Ac)-NH2 for HDAC1, HDAC2 and HDAC10; FAM-RHKK(tri-fluor-Ac)-NH2 for HDAC4, HDAC5, HDAC7, HDAC9 and HDAC11. Reactions consisting of compound, enzyme, and substrate were performed in reaction buffer (comprised of 100 mM HEPES, pH7.5, 25 mM KCl, 0.1% bovine serum albumin, 0.01% Triton X-100) at 25° C. and quenched by the addition of termination buffer (100 mM HEPES, pH7.5, 0.01% Triton X-100, 0.05% SDS). The fluorescence intensity of the electrophoretically separated de-acetylated product and substrate peptide were measured and analyzed using the LabChip® 3000 microfluidic electrophoresis instrument (Perkin Elmer/Caliper Life Sciences). The IC50 values of inhibitors were determined by fitting the %-inhibition curves with 4 parameter dose-response model using XLfit 4 software (IDBS).

[2] = tested on: A549 side population stem-like cells (KRAS mutation); experiment: Sphere formation assay with stem-like side population NSCLC cells; format: cell-based; conditions: A549 SP cells, 0.5-5.0 μM, Day 10
Protocol: (§1) In order to investigate the role of HDAC11 in the self-renewal of stem-like cancer cells, sphere formation assays were conducted with NSCLC side population (SP) stem-like cells. A549 and NCI-H1650 cells were obtained from the ATCC. Asynchronously growing A549 or NCI-H1650 cells were washed once with phosphate buffered saline (PBS) and harvested using Accutase solution (Sigma Aldrich) and resuspended in DMEM-F12K medium (Gibo, Life Technologies) with 2% fetal bovine serum (FBS) at 1×10^6 cells/ml density. The cells were incubated with 4 μg/ml of Hoechst 33342 dye (Life Technologies) for 90 min at 37° C. in the presence or absence of 1 μM Fumitremorgin C (Sigma-Aldrich) which was used as a control sample to set the gate during sorting. The Hoechst stained cells were sorted using the BD FACSAria cell sorter. The sorted SP cells were plated in 96-well ultra-low adherent plate (Corning Inc) at the cell density of 1000 cells/100 μl/well in stem cell selective medium (DMEM:F12K supplemented with N2 supplement, 10 ng/mL epidermal growth factor (EGF) and 10 ng/ml basic fibroblast growth factor (bFGF) (Sigma-Aldrich) at 37° C. for 7-10 days. The spheres were observed and acquired using EVOS FL microscope system (Life Technologies Inc., USA). The numbers of spheres greater than or equal to 50 μm were counted. To study the effect of the HDAC11 inhibitors, the appropriate concentrations of the compounds were added to the wells on Day 0 and Day 5 and the image acquisition and analysis of the spheres were performed on Day 10. The sphere formation assays were performed twice with triplicates of each treatment in every assay.

[3] = tested on: H1650 side population stem-like cells (EGFR mutation); experiment: as above; format: cell-based; conditions: H1650 SP cells, 0.5-5.0 μM, Day 10
Protocol: as §1

[4] = tested on: Sox2, Gli1, Yap1 mRNA in A549 cells; experiment: QRT-PCR assay for stem cell transcription factors; format: cell-based; conditions: A549, 72 hours
Protocol: (§2) Given the effects of HDAC11 inhibition on stem-like side population cells, the effects on the expression of stem cell transcription factors was determined using QRT-PCR. A549 or H1650 cells were plated in 60 mm cell culture dishes (120,000 cells). The next day, HDAC11 inhibitors were added at various concentrations and incubated for 72 hours. For the siRNA experiments, A549 cells were plated in 60 mm cell culture dishes (120,000 cells per dish). The siRNAs (Santa Cruz Biotechnologies sc-106896 or ThermoFisher Scientific Cat#4392420) were transfected at a concentration of 100 and 150 pmoles into cells using Oligofectamine reagent (Invitrogen) as per manufacturer's protocol. A non-targeting siRNA (Ambion AM4635) was used as a control for all the transfection experiments. The cells were harvested after 72 hours post transfection. At the end of the treatments, cells were scraped, lysed and total RNA was isolated by RNeasy miniprep kit from Qiagen following the manufacturer's protocol (RNeasy mini kit Cat No. 74104). 1 μg of RNA was converted into cDNA using iScript cDNA synthesis kit (BioRad) in a 20 μl total reaction volume. Levels of mRNA were further analyzed using quantitative real time-PCR (qRT-PCR) that was performed in CFX96 Real time system using BioRad iQ SYBR Green supermix. The reaction was set with 5 μl of SYBR Green, 1 μl of 1 μM Forward primer, 1 μl of 1 μM Reverse primer, 0.5 μl of cDNA and 4.5 μl of water in a total 12 μl reaction. Data was normalized using GAPDH as an internal control and fold change was calculated by 2^−Delta-DeltaCt method. First the Delta-Ct was calculated (Delta-Ct=Ct Gene−Ct GAPDH). Next Delta-Delta-Ct was calculated (Delta-Delta-Ct=Delta-Ct treatment−Delta-Ct control). Finally fold change was calculated by 2^−Delta-DeltaCt.

[5] = tested on: Sox2, Gli1, Yap1 mRNA in H1650 cells; experiment: QRT-PCR assay for stem cell transcription factors; format: cell-based; conditions: H1650, 72 hours
Protocol: as §2

[6] = tested on: A549 cells; experiment: Cell proliferation assay with combination treatment (MTT); format: cell-based; conditions: A549, combination with GDC-0449 (Vismodegib) or BMS-833923, 96 hours
Protocol: (§3) Selective HDAC11 inhibitors may be useful in combination with other targeted agents, including Jak2 inhibitors and Smoothened inhibitors. The effect of combination with the Smoothened inhibitors GDC-0449 (Vismodegib) and BMS-833923 was tested in lung cancer cell lines. A549 and NCI-H2170 cells were obtained from the ATCC. H2170 is a squamous carcinoma cell line. Cell viability was assessed using MTT reagent (Thiazolyl Blue Tetrazolium Bromide) (Sigma-Aldrich). The cells were grown in 96-well plates at a density of 3000-5000 cells/well in triplicates. The HDAC11 inhibitors were added to the adherent cells at different concentrations and treatment was carried out for 96 hours. After treatments, the cells were incubated with the 1 mg/mL MTT reagent at 37° C. for 1 hour. The reaction was terminated with DMSO that solubilizes the formazan product formed. Absorbance at 590 nm was recorded in a plate reader.

[7] = tested on: NCI-H2170 cells; experiment: as above; format: cell-based; conditions: H2170, combination with GDC-0449 (Vismodegib) or BMS-833923, 96 hours
Protocol: as §3

Sequence of HDAC11 (Q96DB2 whole entry): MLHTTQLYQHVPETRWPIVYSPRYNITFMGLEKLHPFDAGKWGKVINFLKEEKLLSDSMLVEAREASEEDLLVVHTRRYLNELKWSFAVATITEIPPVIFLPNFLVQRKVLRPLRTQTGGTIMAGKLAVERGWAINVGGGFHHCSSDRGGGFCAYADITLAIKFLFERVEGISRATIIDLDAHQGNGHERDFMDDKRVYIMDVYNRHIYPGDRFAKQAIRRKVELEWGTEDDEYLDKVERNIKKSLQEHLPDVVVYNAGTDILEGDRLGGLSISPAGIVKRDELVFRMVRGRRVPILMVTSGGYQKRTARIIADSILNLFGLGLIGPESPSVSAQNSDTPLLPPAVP

Compound	selectivity over HDACs 1-10 [1] [fold]	IC50 [1] [nM]	growth of stem-like cancer cells (sphere formation) [2]	growth of stem-like cancer cells (sphere formation) [3]	expression of Gli1 and Yap1 [4]	expression of Sox2 [4]	expression of Gli1 and Yap1 [5]	expression of Sox2 [5]	cell viability, combination with the Smoothened inhibitors [6]	cell viability, combination with the Smoothened inhibitors [7]
O=C(NO)c1cccc2c1C[C@]1(CCN(Cc3ccc(Cl)c(C(F)(F)F)c3)C1=O)C2 [HDTK054, (S)-1′-(4-chloro-3-(trifluoromethyl)benzyl)-N-hydroxy-2′-oxo-1,3-dihydrospiro[indene-2,3′-pyrrolidine]-4-carboxamide]	> 200	10 to 50	prevented growth	prevented growth	decreased expression	decreased expression	decreased expression	decreased expression	decreased cell viability	decreased cell viability
O=C(NO)c1cccc(Nc2nc3cc(Cl)c(Cl)cc3o2)c1 [HDTK010, 3-((5,6-dichlorobenzo[d]oxazol-2-yl)amino)-N-hydroxybenzamide]	> 200	1 to 5	prevented growth	prevented growth	decreased expression	decreased expression	decreased expression	decreased expression	decreased cell viability	decreased cell viability
